According to patent publication US20230365554A1, “SUBSTITUTED PYRROLO-PYRIDINONE DERIVATIVES AND THERAPEUTIC USES THEREOF” (The Broad Institute, Inc., priority 2020, published 2023):

molecular target: human CSNK1A1 (Homo sapiens (Human), UniProt P48729); assay: CSNK1A1 Assay 2 (ADP-Glo, 1 μM ATP); type: biochemical; details: median, Table 2, read-out: CSNK1A1 Assay 2 IC50 [mol/l] (median)
Summary of the method: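 GST-tagged full-length human CSNK1A1 from insect cells, preincubated 15 min with compound, then reacted 30 min at 22° C with 1 μM ATP and 30 μM biotinylated peptide substrate in pH 7.5 HEPES buffer. ADP measured by ADP-Glo luminescence; normalised to no-inhibitor (0%) and no-enzyme (100%) controls.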

human CSNK1A1, sequence (P48729 whole entry): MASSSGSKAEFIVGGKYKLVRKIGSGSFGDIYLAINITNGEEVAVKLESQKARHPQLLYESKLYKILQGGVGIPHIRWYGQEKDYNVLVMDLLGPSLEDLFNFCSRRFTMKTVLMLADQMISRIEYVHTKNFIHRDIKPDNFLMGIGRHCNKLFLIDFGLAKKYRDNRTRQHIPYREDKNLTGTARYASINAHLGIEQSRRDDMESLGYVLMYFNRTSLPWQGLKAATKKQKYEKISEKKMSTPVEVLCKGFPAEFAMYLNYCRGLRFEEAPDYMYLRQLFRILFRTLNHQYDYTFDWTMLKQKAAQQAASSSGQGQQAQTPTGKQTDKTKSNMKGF

SMILES	IC50
Cc1cn(C)c(=O)c2c(Nc3ccccc3)c(-c3ccnc(NC(=O)C(C)c4ccc(F)cc4)c3)[nH]c12 (single isomer, unassigned) [Example 41, N-[4-(3-anilino-5,7-dimethyl-4-oxo-4,5-dihydro-1H-pyrrolo[3,2-c]pyridin-2-yl)pyridin-2-yl]-2-(4-fluorophenyl)propanamide]	100 nM
CN1CC(CC(F)F)c2[nH]c(-c3ccnc(NC(=O)Cc4ccc(F)cc4)c3)c(Nc3ccccc3)c2C1=O (single isomer, unassigned) [Example 43, N-{4-[3-anilino-7-(2,2-difluoroethyl)-5-methyl-4-oxo-4,5,6,7-tetrahydro-1H-pyrrolo[3,2-c]pyridin-2-yl]pyridin-2-yl}-2-(4-fluorophenyl)acetamide]	2.8 nM
CN1CC(CC(F)F)c2[nH]c(-c3ccnc(NC(=O)Cc4ccc(F)cc4)c3)c(Nc3ccccc3)c2C1=O (single isomer, unassigned) [Example 44, N-{4-[3-anilino-7-(2,2-difluoroethyl)-5-methyl-4-oxo-4,5,6,7-tetrahydro-1H-pyrrolo[3,2-c]pyridin-2-yl]pyridin-2-yl}-2-(4-fluorophenyl)acetamide]	3.3 nM
CN1CC(CC(F)(F)F)c2[nH]c(-c3ccnc(NC(=O)Cc4ccc(F)cc4)c3)c(Nc3cscn3)c2C1=O (single isomer, unassigned) [Example 47, 2-(4-fluorophenyl)-N-{4-[(7R or S)-5-methyl-4-oxo-3-(1,3-thiazol-4-ylamino)-7-(2,2,2-trifluoroethyl)-4,5,6,7-tetrahydro-1H-pyrrolo[3,2-c]pyridin-2-yl]pyridin-2-yl}acetamide]	3.4 nM
CN1CC(CC(F)(F)F)c2[nH]c(-c3ccnc(NC(=O)Cc4ccc(F)cc4)c3)c(Nc3cscn3)c2C1=O (single isomer, unassigned) [Example 48, 2-(4-fluorophenyl)-N-{4-[(7R or S)-5-methyl-4-oxo-3-(1,3-thiazol-4-ylamino)-7-(2,2,2-trifluoroethyl)-4,5,6,7-tetrahydro-1H-pyrrolo[3,2-c]pyridin-2-yl]pyridin-2-yl}acetamide]	7.5 nM
CN1CC(CC2CC2)c2[nH]c(-c3ccnc(NC(=O)Cc4ccc(F)cc4)c3)c(Nc3cscn3)c2C1=O (single isomer, unassigned) [Example 50, N-{4-[(7R or S)-7-(cyclopropylmethyl)-5-methyl-4-oxo-3-(1,3-thiazol-4-ylamino)-4,5,6,7-tetrahydro-1H-pyrrolo[3,2-c]pyridin-2-yl]pyridin-2-yl}-2-(4-fluorophenyl)acetamide]	5.1 nM
CN1CC(CC2CC2)c2[nH]c(-c3ccnc(NC(=O)Cc4ccc(F)cc4)c3)c(Nc3cscn3)c2C1=O (single isomer, unassigned) [Example 51, N-{4-[(7R or S)-7-(cyclopropylmethyl)-5-methyl-4-oxo-3-(1,3-thiazol-4-ylamino)-4,5,6,7-tetrahydro-1H-pyrrolo[3,2-c]pyridin-2-yl]pyridin-2-yl}-2-(4-fluorophenyl)acetamide]	20 nM
CN1CC(CC(F)(F)F)c2[nH]c(-c3ccnc(NC(=O)C(CC(F)F)c4ccc(F)cc4)c3)c(Nc3cscn3)c2C1=O (single isomer, unassigned) [Example 53, (2R or S)-4,4-difluoro-2-(4-fluorophenyl)-N-{4-[(7R or S)-5-methyl-4-oxo-3-[(1,3-thiazol-4-yl)amino]-7-(2,2,2-trifluoroethyl)-4,5,6,7-tetrahydro-1H-pyrrolo[3,2-c]pyridin-2-yl]pyridin-2-yl}butanamide]	21 nM
CN1CC(CC(F)(F)F)c2[nH]c(-c3ccnc(NC(=O)C(CC(F)F)c4ccc(F)cc4)c3)c(Nc3cscn3)c2C1=O (single isomer, unassigned) [Example 54, (2R or S)-4,4-difluoro-2-(4-fluorophenyl)-N-{4-[(7R or S)-5-methyl-4-oxo-3-[(1,3-thiazol-4-yl)amino]-7-(2,2,2-trifluoroethyl)-4,5,6,7-tetrahydro-1H-pyrrolo[3,2-c]pyridin-2-yl]pyridin-2-yl}butanamide]	3 nM
CN1CC(CC(F)(F)F)c2[nH]c(-c3ccnc(NC(=O)C(CC(F)F)c4ccc(F)cc4)c3)c(Nc3cscn3)c2C1=O (single isomer, unassigned) [Example 55, (2R or S)-4,4-difluoro-2-(4-fluorophenyl)-N-{4-[(7R or S)-5-methyl-4-oxo-3-[(1,3-thiazol-4-yl)amino]-7-(2,2,2-trifluoroethyl)-4,5,6,7-tetrahydro-1H-pyrrolo[3,2-c]pyridin-2-yl]pyridin-2-yl}butanamide]	59 nM
CN1CC(CC(F)(F)F)c2[nH]c(-c3ccnc(NC(=O)C(CC(F)F)c4ccc(F)cc4)c3)c(Nc3cscn3)c2C1=O (single isomer, unassigned) [Example 56, (2R or S)-4,4-difluoro-2-(4-fluorophenyl)-N-{4-[(7R or S)-5-methyl-4-oxo-3-[(1,3-thiazol-4-yl)amino]-7-(2,2,2-trifluoroethyl)-4,5,6,7-tetrahydro-1H-pyrrolo[3,2-c]pyridin-2-yl]pyridin-2-yl}butanamide]	7.7 nM
CC1CN(C)C(=O)c2c1[nH]c(-c1ccnc(NC(=O)Cc3ccc(F)cc3)c1)c2Nc1ccccc1 (single isomer, unassigned; (+)) [Example 8, (+)-N-{4-[3-anilino-5,7-dimethyl-4-oxo-4,5,6,7-tetrahydro-1H-pyrrolo[3,2-c]pyridin-2-yl]pyridin-2-yl}-2-(4-fluorophenyl)acetamide]	12 nM
O=C1N[C@@H]2CCC[C@@H]2c2[nH]c(-c3ccnc(NC(=O)C(CC(F)F)c4ccc(F)cc4)c3)c(Nc3ccccc3)c21 (single isomer, unassigned; (+)) [Example 22, (+)-(2R or S)—N-{4-[cis-3-anilino-4-oxo-1,4,5,5a,6,7,8,8a-octahydrocyclopenta[b]pyrrolo[2,3-d]pyridin-2-yl]pyridin-2-yl}-4,4-difluoro-2-(4-fluorophenyl)butanamide]	5.4 nM
O=C1N[C@@H]2CCC[C@@H]2c2[nH]c(-c3ccnc(NC(=O)C(CC(F)F)c4ccc(F)cc4)c3)c(Nc3ccccc3)c21 (single isomer, unassigned; (+)) [Example 25, (+)-(2R or S)—N-{4-[cis-3-anilino-4-oxo-1,4,5,5a,6,7,8,8a-octahydrocyclopenta[b]pyrrolo[2,3-d]pyridin-2-yl]pyridin-2-yl}-4,4-difluoro-2-(4-fluorophenyl)butanamide]	2.3 nM
CC1CN(C)C(=O)c2c1[nH]c(-c1ccnc(NC(=O)Cc3ccc(F)cc3)c1)c2Nc1ccccc1 (single isomer, unassigned; (-)) [Example 7, (−)-N-{4-[3-anilino-5,7-dimethyl-4-oxo-4,5,6,7-tetrahydro-1H-pyrrolo[3,2-c]pyridin-2-yl]pyridin-2-yl}-2-(4-fluorophenyl)acetamide]	5.5 nM
O=C1N[C@@H]2CCC[C@@H]2c2[nH]c(-c3ccnc(NC(=O)C(CC(F)F)c4ccc(F)cc4)c3)c(Nc3ccccc3)c21 (single isomer, unassigned; (-)) [Example 23, (−)-(2R or S)—N-{4-[cis-3-anilino-4-oxo-1,4,5,5a,6,7,8,8a-octahydrocyclopenta[b]pyrrolo[2,3-d]pyridin-2-yl]pyridin-2-yl}-4,4-difluoro-2-(4-fluorophenyl)butanamide]	24 nM
